The values that follow come from patent US20260083677A1, “ACTIVE INGREDIENT CONTAINING STABILISED SOLID MEDICINAL FORMS AND METHODS FOR THE PRODUCTION THEREOF” (ASTELLAS PHARMA INC., priority 2006, published 2026).

Each structure is given as a SMILES string. A value given as a limit tells only on which side of the number the result lay.

Type in all cases: physicochemical
The nature of series [1]: relative equilibrium moisture content in sealed measuring cell (HygroLab, AWVC cell). The note with it: for equilibrium moisture: substances dried at 130° C. for 5 hours (sorbitol: 70° C.). The method, then: In connection with the present invention it is, however, very important to have a method furnishing information on the bonding mechanism of water and the strength of the water bond. For this purpose, the so-called “relative equilibrium moisture content” (hereinafter also abbreviated as “equilibrium moisture content”) is measured which forms on the sample in a fully sealed measuring cell at a certain temperature. It is also referred to as equilibrium activity or water activity. The water activity describes the bond strength of water to the active ingredient and/or the individual components of the active ingredient mixture. The measured value for the water activity and/or for the equilibrium moisture (Equilibrium Relative Humidity) has a decisive influence on the chemical stability of a moisture-sensitive active ingredient which is embedded in a solid form, such as granules, a capsule or tablet.
The equilibrium moisture content is the value of the relative humidity in which a hygroscopic product can be stored without a net moisture exchange taking place between the product and its environment. Thus, if a solid form has an equilibrium moisture content of 10% and is stored at a relative humidity of 15%, it absorbs water from its environment, if the relative moisture of the environment is below 10%, the solid form releases water to its environment and becomes even drier.
Unless otherwise specified, the equilibrium moisture content is determined as follows in a thermostated small, tightly sealed measuring cell having a volume of about 50 ml. In the upper part of this measuring cell there is a sensor which can measure the relative moisture content resulting from the evaporation of water from the sample to be measured (the device HygroLab having the AWVC measuring cell of Rotronic company, CH 8303 Bassersdorf, Switzerland, is used) The device is officially calibrated and the measuring inaccuracy is no more than +1% relative humidity or +0.3° C. The measuring accuracy can be repeated at any time with standardized salt solutions as known to the person skilled in the art. The measurement takes place at 25° C.

Series [2] can be described thus: drying loss determination on a drying balance. The note with it: for drying loss at 130° C./30 min: substances dried at 130° C. for 5 hours (sorbitol: 70° C.). The protocol:
drying loss in %=mass of the water in the sample/total mass of the sample×100
In order to determine the drying loss of a sample (e.g. a solid medicinal form), the sample is spread over a so-called drying balance and (e.g. by an accurately working infrared radiator) adjusted to the desired temperature, e.g. of 105° C. After a certain time (e.g. after 20 or 30 minutes), the drying loss due to the evaporation of water is directly read off the balance in percent. Unless otherwise specified in this application, the expression “drying loss” refers to the drying loss determined under the conditions of 105° C./30 min. A suitable device for measuring of the drying loss is the Moisture Analyzer HR83 of Mettler-Toledo company (CH-8606 Greifensee, Switzerland). The device or the drying balance is preferably used in a closed interior having an ambient temperature of 20° C. and 20% relative humidity.

Series [3] in a line: removal of water of crystallization from amoxicilline trihydrate by a drying agent in a tightly sealing glass vessel. The protocol:
In a tightly sealing glass vessel, two Arcellas having 3.5 g trimagnesium dicitrate, dried at 130° C., or having 1.264 g amoxicilline trihydrate (water content 13.1%) are placed side by side and stored at 25° C. After 14 days, the weight of amoxicilline is only 1,105 g whereas the weight of trimagnesium dicitrate is 3.66 g. The amoxicilline released 12.6% water of crystallization which was absorbed by the drying agent. The new drying agent is active such that it virtually split off the entire water of crystallization of amoxicilline (theoretical value: 12.9%).
If this experiment is repeated with the known drying agent silica gel, the antibiotic only loses 0.1% weight after 25 days. This means that the dried trimagnesium dicitrate according to the invention represents an extremely potent drying agent.
Under precisely equal test conditions, the amoxicilline only loses 9.0% with calcium chloride dried at 130° C. after 26 days/25° C.

Series [4] in a line: weight increase on storage at 25° C./15% relative humidity over 27 days. The following applies: substances dried at 130° C. for 5 hours (sorbitol: 70° C.). The method, then: The substances were dried at 130° C. for 5 hours (sorbitol: 70° C.) and the drying loss was determined. Then, the weight increase of the individual substances was determined at 25° C./15% relative humidity over 27 days.

Where [5] appears, read: measuring cell thermostated to 25° C.
[6] abbreviates: after drying at 130° C. for several hours.
Where [7] appears, read: measured at 150° C./30 min, after drying at 130° C. for several hours.

Consider `O=S(=O)([O-])[O-].[Na+].[Na+]` [Sodium sulfate, reference compound], for which the equilibrium moisture content in series [1] (setting [5]) turned out to be 32.7%. The “drying loss at 130° C.” value in series [2] (testing period 30 min) is listed as 0.06%.

Regarding `CC1(C)S[C@@H]2[C@H](NC(=O)[C@H](N)c3ccc(O)cc3)C(=O)N2[C@H]1C(=O)O` [amoxicilline, amoxicilline trihydrate], the “weight of amoxicilline after storage” value in series [3] (1.264 g at start, beside 3.5 g dried trimagnesium dicitrate, 14 days, 25° C.) is listed as 1,105 g. In addition, the weight loss is on record as 9.0% in series [3] (drying agent calcium chloride dried at 130° C., after 26 days/25° C.) and 0.1% in series [3] (drying agent silica gel, after 25 days). The “water of crystallization released” value in series [3] (drying agent trimagnesium dicitrate dried at 130° C., 14 days, 25° C.) is recorded as 12.6%.

`[Ca+2].[Cl-].[Cl-]` [calcium chloride]: the equilibrium moisture content in series [1] (setting [6]) is given as < 0.5%. For the same compound, the equilibrium moisture in series [1] is < 1%. This compound also gave a drying loss in series [2] (setting [7]) of 3.4%. Moreover, the “drying loss at 130° C./30 min” value in series [2] was found to be 0.02. Also, the “weight increase (%) with storage at 15% relative humidity/25° C.” value in series [4] is 45.9%.

In turn, `O=C(O)CC(O)(CC(=O)O)C(=O)O` [citric acid] displayed an equilibrium moisture content in series [1] (setting [5]) of 63%. The compound also displayed a drying loss in series [2] (measured at 70° C./30 min) of 0.2%.

`OC[C@@H](O)[C@@H](O)[C@H](O)[C@@H](O)CO` [sorbitol]: in series [1], the equilibrium moisture was 9%. In addition, the “drying loss at 130° C./30 min” value in series [2] is reported as 0.1. In addition, the “weight increase (%) with storage at 15% relative humidity/25° C.” value in series [4] was 0.1%.

As to `O=C([O-])CC(O)(CC(=O)[O-])C(=O)[O-].O=C([O-])CC(O)(CC(=O)[O-])C(=O)[O-].[Mg+2].[Mg+2].[Mg+2]` [trimagnesium dicitrate], the equilibrium moisture content in series [1] (setting [6]) is on record as < 0.5%; in series [1] (after drying at 130° C. for several hours, at 25° C.), 0.6%. In addition, the equilibrium moisture in series [1] is < 1%. For the same compound, in series [3] (3.5 g at start, dried at 130° C., beside amoxicilline trihydrate, 14 days, 25° C.), the “weight of trimagnesium dicitrate after storage” value is 3.66 g. Besides, the drying loss in series [2] (setting [7]) was found to be 1.6%. Also, the “drying loss at 130° C./30 min” value in series [2] is recorded as 0.2. Besides, the “weight increase (%) with storage at 15% relative humidity/25° C.” value in series [4] is given as 8.6%.
